# Data as given in article PMC10210181 (ACS Omega, 2023).
# Molecular target: S. aureus DNA gyrase (Staphylococcus aureus, UniProt P0A0K8+P20831)
# Test: DNA gyrase supercoiling assay, purified gyrase and relaxed plasmid DNA kit
# Assay type: biochemical
# Sequence of S. aureus DNA gyrase (P20831 whole entry): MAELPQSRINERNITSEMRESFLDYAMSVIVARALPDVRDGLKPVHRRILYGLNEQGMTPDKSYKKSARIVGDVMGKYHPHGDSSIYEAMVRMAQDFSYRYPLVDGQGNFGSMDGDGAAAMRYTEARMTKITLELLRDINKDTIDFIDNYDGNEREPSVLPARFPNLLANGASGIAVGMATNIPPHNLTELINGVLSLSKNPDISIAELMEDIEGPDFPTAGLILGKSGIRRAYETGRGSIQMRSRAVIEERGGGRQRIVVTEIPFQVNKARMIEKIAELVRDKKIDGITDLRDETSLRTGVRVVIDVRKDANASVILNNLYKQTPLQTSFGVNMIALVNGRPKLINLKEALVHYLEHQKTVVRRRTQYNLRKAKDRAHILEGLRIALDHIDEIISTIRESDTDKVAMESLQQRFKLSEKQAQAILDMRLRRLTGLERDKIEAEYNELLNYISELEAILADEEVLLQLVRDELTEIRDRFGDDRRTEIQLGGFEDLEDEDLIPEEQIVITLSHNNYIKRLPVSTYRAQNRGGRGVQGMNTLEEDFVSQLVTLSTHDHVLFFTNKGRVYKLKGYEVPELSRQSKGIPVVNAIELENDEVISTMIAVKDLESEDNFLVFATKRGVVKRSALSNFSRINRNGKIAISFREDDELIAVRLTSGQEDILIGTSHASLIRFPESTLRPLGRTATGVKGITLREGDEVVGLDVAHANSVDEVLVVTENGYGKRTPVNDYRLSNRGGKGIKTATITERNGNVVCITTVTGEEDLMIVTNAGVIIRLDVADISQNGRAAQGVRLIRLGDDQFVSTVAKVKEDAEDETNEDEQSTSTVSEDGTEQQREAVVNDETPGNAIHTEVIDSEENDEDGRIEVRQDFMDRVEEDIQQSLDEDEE
# Sequence of S. aureus DNA gyrase (P0A0K8 2-644): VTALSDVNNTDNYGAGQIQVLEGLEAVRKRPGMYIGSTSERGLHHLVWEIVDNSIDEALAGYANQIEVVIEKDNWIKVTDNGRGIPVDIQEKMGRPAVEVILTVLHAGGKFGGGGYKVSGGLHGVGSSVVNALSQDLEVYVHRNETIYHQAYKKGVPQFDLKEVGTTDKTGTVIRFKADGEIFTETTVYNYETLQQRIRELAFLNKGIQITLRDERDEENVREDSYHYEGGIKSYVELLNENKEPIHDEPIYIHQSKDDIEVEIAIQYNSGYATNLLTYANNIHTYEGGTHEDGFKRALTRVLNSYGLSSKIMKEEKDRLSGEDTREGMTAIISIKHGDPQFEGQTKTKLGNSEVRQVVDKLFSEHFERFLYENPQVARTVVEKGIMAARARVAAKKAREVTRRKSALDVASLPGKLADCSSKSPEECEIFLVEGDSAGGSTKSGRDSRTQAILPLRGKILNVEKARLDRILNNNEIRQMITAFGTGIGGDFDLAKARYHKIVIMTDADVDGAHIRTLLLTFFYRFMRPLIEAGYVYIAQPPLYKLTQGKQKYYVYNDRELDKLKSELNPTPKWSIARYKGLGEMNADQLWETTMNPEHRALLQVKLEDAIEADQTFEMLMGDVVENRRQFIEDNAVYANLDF
row,Structure (SMILES),IC50 [µM]
1,"N=C1CC(N)=NN1C(=O)c1cc(-c2ccc(Br)cc2)nc2ccccc12 [compound 10, (3-Amino-5-imino-4,5-dihydro-1H-pyrazol-1-yl)(2-(4-bromophenyl)quinolin-4-yl)methanone]",8.45
2,"COc1ccc(NC(=O)CNNC(=O)c2cc(-c3ccc(Br)cc3)nc3ccccc23)cc1 [6b, 2-(2-(2-(4-Bromophenyl)quinoline-4-carbonyl)hydrazinyl)-N-(4-methoxyphenyl)acetamide]",33.6
